Measurements taken from article PMC5429621 (Scientific Reports, 2017).

Experiments:
hP2X1R = target: T1, hP2X1R (Homo sapiens, UniProt P51575); experiment: two-electrode voltage clamp, Xenopus oocytes; type: cell-based
T1 construct: expressed in transfected cells; host or cells: Xenopus laevis oocytes (cRNA injected)
T1 sequence (P51575 1-399): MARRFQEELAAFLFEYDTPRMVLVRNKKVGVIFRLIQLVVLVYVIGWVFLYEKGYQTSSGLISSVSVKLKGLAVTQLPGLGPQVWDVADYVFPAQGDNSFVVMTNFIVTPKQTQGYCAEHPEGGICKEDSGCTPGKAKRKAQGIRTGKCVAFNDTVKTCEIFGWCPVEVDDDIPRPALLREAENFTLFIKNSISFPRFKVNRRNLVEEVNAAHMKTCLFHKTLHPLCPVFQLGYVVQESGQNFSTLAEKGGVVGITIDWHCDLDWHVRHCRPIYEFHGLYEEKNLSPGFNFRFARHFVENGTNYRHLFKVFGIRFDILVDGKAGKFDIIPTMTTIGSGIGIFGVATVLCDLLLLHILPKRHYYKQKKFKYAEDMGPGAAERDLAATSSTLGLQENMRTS
Source text: (§1) The hP2X1R was a gift from Dr Lin-Hua Jiang (University of Leeds, UK) and the hP2X1R cDNA has been described previously. Chimeras were generated by megaprimer-mediated domain swapping. In addition to chimeras, point mutations, deletions and insertions were made using the QuikChange (Stratagene) or Q5 (New England Bioscience) mutagenesis kits. The production of the correct mutations and absence of coding errors was verified by DNA sequencing (Automated ABI Sequencing Service, University of Leicester, UK).
(§2) P2XR constructs were transcribed to produce sense-strand cRNA (mMessage mMachine, Ambion, Austin, TX). Manually defoliculated stage V Xenopus laevis oocytes were injected with 50 nl (50 ng) of cRNA using an Inject + Matic microinjector (J.A. Gaby, InjectMatic, Geneva, Switzerland) and stored at 16 °C in ND96 buffer (in mM, NaCl 96, KCl 2, CaCl2 1.8, MgCl2 1, sodium pyruvate 5, HEPES 5 (pH 7.6) supplemented with 50 µg/ml gentamycin and 50 µg/ml tetracycline). For electrophysiological recordings (3–7 days post-injection) oocytes were bathed in divalent free ND96 buffer (in mM, NaCl 96, KCl 2, sodium pyruvate 5, HEPES 5 and 0.1 flufenamic acid, pH 7.6).
Two-electrode voltage clamp recordings were carried out using a GeneClamp 500B amplifier with a Digidata 1322 A analog to digital convertor and pCLAMP 8.2 acquisition software (Molecular Devices, Menolo Park, CA) at a holding potential of −60 mV. ATP (sodium salt, Sigma) was applied via a U-tube perfusion system for 3 s at 3–5 minute intervals to allow reproducible responses to be recorded. For determination of antagonist sensitivity AZ10606120 (Tocris) was bath perfused as well as co-applied with ATP through the U-tube. […]
Concentration response curves were normalized to the maximal response and fitted with the Hill equation (variable slope) with GraphPad Prism 6 (Graphpad software, San Diego, CA). […] Any significant differences were calculated by one-way analysis of variance, followed by Bonferroni’s test (using GraphPad Prism 6). […]

[1] = target: T2, hP2X7-2Nβ/P2X1 chimera 279–285 (Homo sapiens, UniProt Q99572, DEL279-281/I21V/M24R/N16P/N25R/N284E/Q22R/R20V/S23N/T19I/T282Y/T283E/V285K/Y26L); experiment: two-electrode voltage clamp, Xenopus oocytes; type: cell-based; details: 279–285 chimera; relative to P2X7-2Nβ
T2 construct: expressed in transfected cells; host or cells: Xenopus laevis oocytes (cRNA injected)
T2 sequence (Q99572 with tags, fused parts or gaps N16P/T19I/R20V/I21V/Q22R/S23N/M24R/N25R/Y26L/DEL279-281/T282Y/T283E/N284E/V285K): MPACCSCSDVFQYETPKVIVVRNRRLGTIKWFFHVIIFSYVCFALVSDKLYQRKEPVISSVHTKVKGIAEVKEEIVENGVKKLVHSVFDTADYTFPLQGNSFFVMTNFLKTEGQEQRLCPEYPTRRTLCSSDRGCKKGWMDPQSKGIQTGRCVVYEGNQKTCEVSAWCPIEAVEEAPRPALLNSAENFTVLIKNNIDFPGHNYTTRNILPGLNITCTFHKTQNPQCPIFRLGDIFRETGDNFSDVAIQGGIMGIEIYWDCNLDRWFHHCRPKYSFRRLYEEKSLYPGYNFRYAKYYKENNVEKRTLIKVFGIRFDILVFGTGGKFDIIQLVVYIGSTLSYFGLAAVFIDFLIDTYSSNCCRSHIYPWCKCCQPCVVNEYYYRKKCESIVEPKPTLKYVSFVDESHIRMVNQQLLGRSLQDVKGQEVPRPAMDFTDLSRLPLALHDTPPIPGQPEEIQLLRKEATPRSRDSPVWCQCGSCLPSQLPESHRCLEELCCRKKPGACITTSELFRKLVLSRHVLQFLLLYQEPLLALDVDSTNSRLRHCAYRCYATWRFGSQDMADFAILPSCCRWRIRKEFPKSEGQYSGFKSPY
Source text: as §1, §2
ATP (sodium salt, Sigma) was applied via a U-tube perfusion system for 3 s at 3–5 minute intervals to allow reproducible responses to be recorded. […] To standardize for any change in ATP sensitivity at mutant receptors antagonists were co-applied with an EC90 concentration of ATP.
Concentration response curves were normalized to the maximal response and fitted with the Hill equation (variable slope) with GraphPad Prism 6 (Graphpad software, San Diego, CA). […] Individual concentration response curves were generated for individual experiments and statistical analysis was carried out on the data generated. In the figures the inhibition curves are fitted to the mean normalized data. Any significant differences were calculated by one-way analysis of variance, followed by Bonferroni’s test (using GraphPad Prism 6). Data are shown as mean ± SEM.

tumour growth = tested on: tumour growth; design: method as in PMID 22505653; details: cited from earlier work

Row | SMILES | Peak amplitude (hP2X1R; P2X1, maximal ATP) | increase in ATP sensitivity [1] | AZ10606120 pIC50 (hP2X1R; P2X1, EC90 ATP) | effect of AZ10606120 at P2X1R (hP2X1R; at 10 μM) | effect of AZ10606120 treatment in animal studies (tumour) (tumour growth)
1 | Nc1ncnc2c1ncn2[C@@H]1O[C@H](COP(=O)(O)OP(=O)(O)OP(=O)(O)O)[C@@H](O)[C@H]1O [ATP] | 7.90 ± 1.08 μA | ~ 10 fold | – | – | –
2 | Cl.Cl.O=C(CC12CC3CC(CC(C3)C1)C2)Nc1cccc2nc(NCCNCCO)ccc12 [AZ10606120, N-[2-[[2-[(2-Hydroxyethyl)amino]ethyl]amino]-5-quinolinyl]-2-tricyclo[3.3.1.13,7]dec-1-ylacetamide dihydrochloride] | – | – | insensitive | ineffective | reduced tumour growth
